13 molecules from PubChem BioAssay AID330 (DTP/NCI, 2004) can be followed below.

For this assay, the system named is P388 leukemia ip, CD2F1 mice, survival T/C. In words: NCI In Vivo Anticancer Drug Screen. Data for tumor model P388 Leukemia (intraperitoneal) in CD2F1 (CDF1) mice. The conditions noted are these: endpoint: median survival time, higher = longer survival. The essentials:
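Mice carrying the transplanted tumor received test compound or vehicle. Survival was recorded in each group, and the value is the treated-group measurement divided by that of the vehicle-treated control group.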

Setting [1] is: dose: 25.0 mg/kg/injection, schedule: Q01DX009 (ip), vehicle: saline.
Setting [2] is: dose: 60.0 mg/kg/injection, schedule: Q01DX005 (ip), vehicle: saline with Tween-80.
[3] abbreviates: dose: 120.0 mg/kg/injection, schedule: Q01DX005 (ip), vehicle: saline with Tween-80.
Setting [4] is: dose: 240.0 mg/kg/injection, schedule: Q01DX005 (ip), vehicle: saline with Tween-80.
The mark [5] stands for this setting: dose: 6.25 mg/kg/injection, schedule: Q01DX009 (ip), vehicle: saline.
Where [6] appears, read: dose: 12.5 mg/kg/injection, schedule: Q01DX009 (ip), vehicle: saline.
[7] abbreviates: dose: 12.5 mg/kg/injection, schedule: Q01DX009 (ip), vehicle: saline with Tween-80.
Where [8] appears, read: dose: 25.0 mg/kg/injection, schedule: Q01DX009 (ip), vehicle: saline with Tween-80.

Where “and” joins values, the source holds several entries; their conditions need not be identical. Identical values can stand only once. Inconclusive results and toxic doses are left out.

In the case of `COCCOP(=O)(N1CC1)N1CC1`, the T/C was 118 % of control (dose: 6.25 mg/kg/injection, schedule: Q04DX003 (ip), vehicle: saline); 181 % of control under setting [1]; 177 % of control (dose: 25.0 mg/kg/injection, schedule: Q04DX003 (ip), vehicle: saline); 150 % of control (dose: 33.0 mg/kg/injection, schedule: Q04DX003 (ip), vehicle: saline); 122 % of control (dose: 50.0 mg/kg/injection, schedule: Q01DX009 (ip), vehicle: saline); 175 % of control and 190 % of control (dose: 50.0 mg/kg/injection, schedule: Q04DX003 (ip), vehicle: saline). The T/C (dose: 75.0 mg/kg/injection, schedule: Q04DX003 (ip), vehicle: saline) was 120 % of control.

On to `O=C=Nc1nc(Cl)c(SC(F)(F)F)c(Cl)n1`, for which the T/C under setting [2] is 97 % of control, the T/C under setting [3] is 98 % of control and the T/C under setting [4] was 108 % of control.

Turning to `CCOC(=O)NSCC`, the T/C is, setting by setting: under setting [5], 100 % of control; under setting [6], 103 % of control; under setting [1], 105 % of control.

On to `Cc1cnc(/C=N\NC(N)=S)c2cccc(N)c12`, for which the T/C runs as follows: (dose: 1.57 mg/kg/injection, schedule: Q01DX009 (ip), vehicle: saline with Tween-80) 120 % of control; (dose: 3.12 mg/kg/injection, schedule: Q01DX009 (ip), vehicle: saline with Tween-80) 103 % of control; (dose: 4.32 mg/kg/injection, schedule: Q01DX005 (ip), vehicle: clinical formulation) 121 % of control; (dose: 6.25 mg/kg/injection, schedule: Q01DX009 (ip), vehicle: water) 170 % of control; (dose: 12.0 mg/kg/injection, schedule: Q01DX005 (ip), vehicle: clinical formulation) 152 % of control; (dose: 12.5 mg/kg/injection, schedule: Q01DX009 (ip), vehicle: Klucel (hydroxypropylcellulose) (HPC)) 162 % of control and 163 % of control. Besides, the T/C was 188 % of control (dose: 12.5 mg/kg/injection, schedule: Q01DX009 (ip), vehicle: other); 168 % of control under setting [7]; 150 % of control under setting [6]; 189 % of control (dose: 12.5 mg/kg/injection, schedule: Q01DX009 (ip), vehicle: water); 155 % of control (dose: 20.0 mg/kg/injection, schedule: Q01DX005 (ip), vehicle: clinical formulation); 179 % of control and 193 % of control (dose: 25.0 mg/kg/injection, schedule: Q01DX009 (ip), vehicle: Klucel (hydroxypropylcellulose) (HPC)). Moreover, the T/C (dose: 25.0 mg/kg/injection, schedule: Q01DX009 (ip), vehicle: other) is 97 % of control; the T/C under setting [8] is 184 % of control; the T/C under setting [1] was 172 % of control; the T/C (dose: 25.0 mg/kg/injection, schedule: Q01DX009 (ip), vehicle: water) is 218 % of control; the T/C (dose: 50.0 mg/kg/injection, schedule: Q01DX009 (ip), vehicle: Klucel (hydroxypropylcellulose) (HPC)) was 109 % of control.

For `CCOC(=O)COC1=NN(c2cccc(C(F)(F)F)c2)CC1`, the T/C (dose: 100.0 mg/kg/injection, schedule: Q04DX003 (ip), vehicle: Klucel (hydroxypropylcellulose) (HPC)) is 110 % of control; the T/C (dose: 200.0 mg/kg/injection, schedule: Q04DX003 (ip), vehicle: Klucel (hydroxypropylcellulose) (HPC)) is 110 % of control; the T/C (dose: 400.0 mg/kg/injection, schedule: Q04DX003 (ip), vehicle: Klucel (hydroxypropylcellulose) (HPC)) was 109 % of control.

`Cc1nn(-c2ccccc2)c2oc3ccc(Cl)cc3c(=O)c12`: the T/C by setting is: (dose: 60.0 mg/kg/injection, schedule: Q01DX005 (ip), vehicle: saline) 96 % of control; (dose: 120.0 mg/kg/injection, schedule: Q01DX005 (ip), vehicle: saline) 92 % of control.

Take `S=C(N/N=C/c1ccccn1)N/N=C/c1ccccn1`: the T/C under setting [5] was 117 % of control; the T/C under setting [6] was 103 % of control and 105 % of control; the T/C (dose: 25.0 mg/kg/injection, schedule: Q01DX009 (ip), vehicle: distilled water + Tween-80) was 97 % of control; the T/C under setting [1] was 109 % of control and 120 % of control.

In the case of `CC1CCN(CC(O)C(C)(C)Oc2ccc(-c3ccccc3)cc2)CC1` (configuration not stated), the T/C is, setting by setting: (dose: 50.0 mg/kg/injection, schedule: Q01DX005 (ip), vehicle: Klucel (hydroxypropylcellulose) (HPC)) 97 % of control; (dose: 100.0 mg/kg/injection, schedule: Q01DX005 (ip), vehicle: Klucel (hydroxypropylcellulose) (HPC)) 93 % of control.

On to `COC(=O)/C=C/CCO`, for which the T/C (dose: 50.0 mg/kg/injection, schedule: Q01DX009 (ip), vehicle: saline with Tween-80) is 111 % of control; the T/C (dose: 100.0 mg/kg/injection, schedule: Q01DX009 (ip), vehicle: saline with Tween-80) was 95 % of control; the T/C (dose: 200.0 mg/kg/injection, schedule: Q01DX009 (ip), vehicle: saline with Tween-80) was 108 % of control.

Regarding `COc1cccc2c1C(=N)c1c(O)c3c(c(O)c1C2=O)CC(O)(C(=O)CO)CC3OC1CC(N2CCOCC2)C(O)C(C)O1` (configuration not stated), the T/C (dose: 0.13 mg/kg/injection, schedule: Q04DX003 (ip), vehicle: water) was 101 % of control and 104 % of control and 98 % of control; the T/C (dose: 0.25 mg/kg/injection, schedule: Q04DX003 (ip), vehicle: water) was 101 % of control and 108 % of control and 116 % of control; the T/C (dose: 0.5 mg/kg/injection, schedule: Q04DX003 (ip), vehicle: water) is 104 % of control and 107 % of control; the T/C (dose: 0.78 mg/kg/injection, schedule: Q04DX003 (ip), vehicle: distilled water + Tween-80) was 105 % of control; the T/C (dose: 1.0 mg/kg/injection, schedule: Q04DX003 (ip), vehicle: water) was 99 % of control and 104 % of control and 107 % of control; the T/C (dose: 1.56 mg/kg/injection, schedule: Q04DX003 (ip), vehicle: distilled water + Tween-80) was 101 % of control. Further, under “dose: 3.12 mg/kg/injection, schedule: Q04DX003 (ip), vehicle: distilled water + Tween-80”, the T/C was 99 % of control.

Take `Cc1nc2ccccc2nc1N`: the T/C was 94 % of control under setting [2], 98 % of control under setting [3] and 98 % of control under setting [4].

Turning to `COC(=O)CC1(C(=O)OC)c2sc(-c3ccccc3)c(-c3ccccc3)c2N2CCCC21` (configuration not stated), the T/C is 97 % of control (dose: 11.25 mg/kg/injection, schedule: Q01DX009 (ip), vehicle: Klucel (hydroxypropylcellulose) (HPC)); 97 % of control (dose: 22.5 mg/kg/injection, schedule: Q01DX009 (ip), vehicle: Klucel (hydroxypropylcellulose) (HPC)); 97 % of control (dose: 45.0 mg/kg/injection, schedule: Q01DX009 (ip), vehicle: Klucel (hydroxypropylcellulose) (HPC)).

For `O=C(Nc1ccc(C(=O)Nc2ccc(C3=NCCCN3)cc2)cc1)Nc1ccc(C2=NCCCN2)cc1`, the T/C (dose: 6.25 mg/kg/injection, schedule: Q04DX003 (ip), vehicle: saline with Tween-80) was 108 % of control; the T/C under setting [7] is 204 % of control; the T/C under setting [8] was 122 % of control; the T/C (dose: 25.0 mg/kg/injection, schedule: Q04DX003 (ip), vehicle: saline with Tween-80) was 150 % of control; the T/C (dose: 100.0 mg/kg/injection, schedule: Q04DX003 (ip), vehicle: saline) was 90 % of control.
